The text below walks through data of PubChem BioAssay (NCI).

Some test systems named below: SK-MEL-5 melanoma; TK-10 renal; HT29 colon; M14 melanoma; U251 CNS; MCF7 breast; MOLT-4 leukemia; MDA-MB-231 breast; UACC-257 melanoma; MALME-3M melanoma; CAKI-1 renal; SF-539 CNS; NCI-H23 lung; OVCAR-8 ovarian; UO-31 renal; SK-OV-3 ovarian; HCT-116 colon; SK-MEL-2 melanoma; MDA-MB-435; DU-145 prostate.
Common to all, as to test: inhibition of tumour cell growth, NCI panel, 48 h

Molecules are shown by their SMILES.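 Cells were grown in 96-well plates and exposed to each compound for 48 hours at five concentrations; endpoints were interpolated linearly between bracketing concentrations, or set to the highest concentration if not reached. The concentration for full growth arrest is given as TGI.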

On to `Nc1nc(N)c2cc(-c3ccccc3)cnc2n1`, for which the TGI stood at 27.3 µM in the assay on SK-MEL-5 melanoma; 29.9 µM in the assay on TK-10 renal; 21 µM with HT29 colon; 57.7 µM in the assay on M14 melanoma; 42 µM in the assay on U251 CNS; 44.1 µM in the assay with MCF7 breast. Further, the TGI with MOLT-4 leukemia was found to be 28.3 µM; in the assay with MDA-MB-231 breast, 20.4 µM; with UACC-257 melanoma, 30.6 µM; in the assay on MALME-3M melanoma, 21.7 µM; with CAKI-1 renal it was 29.5 µM; in the assay with SF-539 CNS, 31.1 µM. In addition, the TGI was 25.9 µM in the assay on NCI-H23 lung; 57.4 µM in the assay on OVCAR-8 ovarian; 25.7 µM in the assay on UO-31 renal; above 100 µM with SK-OV-3 ovarian; 17.3 µM in the assay with HCT-116 colon; above 100 µM in the assay with SK-MEL-2 melanoma.
For `CC(=O)NC1=C(NC(C)(C)C)C(=O)c2ccccc2C1=O`, the TGI was 32.5 µM in the assay with SK-MEL-5 melanoma; 33.5 µM in the assay with TK-10 renal; 49.7 µM in the assay with HT29 colon; 31.1 µM with M14 melanoma; above 100 µM with U251 CNS; 26.7 µM with MOLT-4 leukemia. Also, the TGI with UACC-257 melanoma turned out to be 29.4 µM; in the assay with MALME-3M melanoma, 33.9 µM; in the assay with CAKI-1 renal, 30 µM; in the assay on SF-539 CNS, 33.3 µM; in the assay on NCI-H23 lung it was 35.2 µM; with OVCAR-8 ovarian, 39.5 µM. Also, the TGI with UO-31 renal was 32.9 µM; with SK-OV-3 ovarian, above 100 µM; in the assay with HCT-116 colon it was 64.2 µM; in the assay on SK-MEL-2 melanoma it was 42.9 µM.
For `Oc1c(Cl)c(Cl)c(O)c(CCNc2ccc3ncccc3c2)c1Cl`, the TGI in the assay on SK-MEL-5 melanoma stood at 5.52 µM; in the assay with MDA-MB-435, 18.8 µM; in the assay on TK-10 renal, 36.7 µM; with HT29 colon it was 88.4 µM; in the assay on M14 melanoma, 27.1 µM; in the assay on U251 CNS, 36.8 µM. The TGI with MCF7 breast is 30.8 µM; with DU-145 prostate it was 60 µM; in the assay on MOLT-4 leukemia, above 100 µM; in the assay on UACC-257 melanoma, 43.6 µM; with MALME-3M melanoma, 35.3 µM; in the assay on CAKI-1 renal it was 25.4 µM. The TGI in the assay on SF-539 CNS is 39.4 µM; in the assay with NCI-H23 lung it was 25.9 µM; in the assay on OVCAR-8 ovarian, 50.6 µM; in the assay on UO-31 renal, 31.2 µM; in the assay on SK-OV-3 ovarian, 27.6 µM; in the assay with HCT-116 colon, 41.9 µM. The TGI in the assay on SK-MEL-2 melanoma came to 22.8 µM.
On to `O=S(=O)(c1ccccc1)C(c1ccc2ccccc2n1)S(=O)(=O)c1ccccc1`, for which the TGI with SK-MEL-5 melanoma, in the assay on TK-10 renal, in the assay on HT29 colon, in the assay on U251 CNS, in the assay with MCF7 breast and in the assay with DU-145 prostate was above 100 µM in each case. The TGI in the assay with MOLT-4 leukemia, in the assay on MDA-MB-231 breast, with UACC-257 melanoma, with MALME-3M melanoma, in the assay with CAKI-1 renal and with SF-539 CNS was above 100 µM each time. In addition, the TGI with NCI-H23 lung, with OVCAR-8 ovarian, in the assay on UO-31 renal and in the assay on HCT-116 colon was above 100 µM throughout.
`Cc1ccccc1NC(=O)c1c(C)oc2c1C(=O)c1ccccc1C2=O`: the TGI in the assay with SK-MEL-5 melanoma is 27.1 µM; in the assay with TK-10 renal it was above 100 µM; in the assay on HT29 colon, above 100 µM; with M14 melanoma, above 69.9 µM; with U251 CNS, above 20.2 µM; in the assay with MOLT-4 leukemia, 47.4 µM. The TGI is 52.7 µM in the assay with UACC-257 melanoma; 27.3 µM with MALME-3M melanoma; above 100 µM in the assay with CAKI-1 renal; above 68.5 µM with SF-539 CNS; 93.5 µM with NCI-H23 lung; above 100 µM in the assay with OVCAR-8 ovarian. Also, the TGI with UO-31 renal is above 100 µM; in the assay with SK-OV-3 ovarian, above 100 µM; in the assay on HCT-116 colon it was above 100 µM; in the assay on SK-MEL-2 melanoma, above 72.3 µM.
With `C/C=C1\C=C(OC)CN(CCc2c[nH]c3ccccc23)C1`, the TGI in the assay on SK-MEL-5 melanoma was 53.3 µM; in the assay with TK-10 renal, above 100 µM; in the assay on HT29 colon, above 100 µM; in the assay with M14 melanoma, 95.6 µM; with MOLT-4 leukemia, above 100 µM; in the assay with UACC-257 melanoma it was above 100 µM. Moreover, the TGI was 56.8 µM with MALME-3M melanoma; above 100 µM in the assay with SF-539 CNS; above 100 µM in the assay on NCI-H23 lung; above 100 µM with OVCAR-8 ovarian; above 100 µM in the assay on UO-31 renal; above 100 µM with HCT-116 colon. The molecule further had a TGI with SK-MEL-2 melanoma above 100 µM.
In the case of `NC(=O)c1cc2ccc(O)cc2o/c1=N/NC(=O)c1ccccc1`, the TGI in the assay on SK-MEL-5 melanoma, in the assay on MDA-MB-435, in the assay with TK-10 renal, with HT29 colon, in the assay with M14 melanoma and in the assay on U251 CNS was above 100 µM each time. In addition, the TGI with MCF7 breast, with MOLT-4 leukemia, in the assay on MDA-MB-231 breast, in the assay on UACC-257 melanoma, in the assay on MALME-3M melanoma and with CAKI-1 renal was above 100 µM in each case. Besides, the TGI in the assay on NCI-H23 lung is above 100 µM; in the assay on OVCAR-8 ovarian, above 100 µM; in the assay with UO-31 renal, above 100 µM; with SK-OV-3 ovarian, above 100 µM; with HCT-116 colon, above 100 µM; in the assay on SK-MEL-2 melanoma, 91.8 µM.
In the case of `COc1ccc(P2(=S)Oc3ccccc3-c3ccccc3O2)cc1`, the TGI with SK-MEL-5 melanoma was above 79.7 µM; in the assay on TK-10 renal, above 100 µM; in the assay on M14 melanoma it was above 100 µM; in the assay on U251 CNS, above 100 µM; in the assay with MCF7 breast, above 40.4 µM; in the assay on DU-145 prostate it was above 100 µM. Besides, the TGI was above 100 µM with MOLT-4 leukemia; above 100 µM in the assay on MDA-MB-231 breast; above 100 µM in the assay with UACC-257 melanoma; above 100 µM with MALME-3M melanoma; 0.537 µM in the assay on SF-539 CNS; above 100 µM in the assay with NCI-H23 lung. In addition, the TGI was above 40.6 µM in the assay on OVCAR-8 ovarian, above 38.7 µM with HCT-116 colon and above 100 µM in the assay on SK-MEL-2 melanoma.
In the case of `COc1ccc2cc3[nH]c(=O)cc(O)c3cc2c1OC`, the TGI with TK-10 renal, in the assay with HT29 colon, in the assay on M14 melanoma, in the assay with U251 CNS, in the assay with MOLT-4 leukemia and in the assay with UACC-257 melanoma was above 100 µM throughout. Moreover, the TGI in the assay on MALME-3M melanoma, with CAKI-1 renal, in the assay on SF-539 CNS, in the assay with NCI-H23 lung, in the assay with OVCAR-8 ovarian and in the assay with UO-31 renal was above 100 µM in each case. Also, the TGI with HCT-116 colon and in the assay on SK-MEL-2 melanoma was above 100 µM in each case.
